US20220257639A1, “TREATMENT OF PATIENTS UNDER ANTIPLATELET MEDICATION EXPERIENCING ACUTE BLEEDING COMPLICATIONS DURING/AFTER SURGERY” (priority 2019, published 2022)

Key:
[1] = test system: human platelets in plasma; experiment: Platelet aggregation in platelet-rich plasma (light transmission aggregometry); assay type: cell-based; conditions: 20 min, n=5, mean±S.E.M.
Description: With approval from the regional ethical board Örebro-Uppsala county (Dnr 2015/543) blood was obtained from healthy volunteers, who denied to have taken any medication two weeks prior to donation, by venipuncture and drawn into 10 ml syringes preloaded by the supplier with trisodium citrate solution (Sarstedt, Nümbrecht, Germany, Order number: 02.1067.001) The blood was and centrifuged at 220 g for 20 min. The PRP thus obtained was transferred into fresh 15 ml polypropylene tubes, and the remaining blood was centrifuged at 2200 g for 20 min to separate the PPP from remaining blood cells.
Measurements were performed at 37° C. using Chrono-Log lumi-aggregometer (Model 700, Chrono-log Corporation, Havertown, Pa., USA) with stirring at 900 rev./min using a final volume of 0.3 ml platelet suspension. Aggregation is expressed as percentage light transmission compared with PPP alone (=100%).
Platelets were preincubated with vehicle or AR-C66096 as indicated for 5 min followed by the stimulation with 1 μg/ml collagen, 10 μM SFLLRN, 30 μg/ml C34, 10 μg/ml fucoidan, or 30 μg/ml dextran sulfate (DxS) (FIG. 4A).
Platelets were preincubated with vehicle or ICI 192,506 as indicated for 5 min followed by the stimulation with 1 μg/ml collagen, 10 μM SFLLRN, 30 μg/ml C34, 10 μg/ml fucoidan, or 30 μg/ml dextran sulfate (DxS) (FIG. 4B).
Platelets were preincubated with vehicle or AR-C66096 and ICI 192,506 as indicated for 5 min followed by the stimulation with 1 μg/ml collagen, 10 μM SFLLRN, 30 μg/ml C34, 10 μg/ml fucoidan, or 30 μg/ml dextran sulfate (DxS) (FIG. 4C).

[2] = test system: human platelets in plasma; experiment: as above; assay type: cell-based; conditions: in the presence of both TPα and P2Y12 antagonists (dual inhibition; DAPT), FIG. 3
[3] = test system: washed (isolated) human platelets; conditions: from Kauskot et al. [4]; cited from earlier work
[4] = FIG. 4A, in the presence of P2Y12 receptor antagonist AR-C66096 (5 min preincubation), same agonist concentrations
[5] = FIG. 4A, vehicle preincubation (no antagonist), 1 μg/ml collagen, 10 μM SFLLRN, 30 μg/ml C34, 10 μg/ml fucoidan, 30 μg/ml DxS
[6] = FIG. 4B, in the presence of TPα receptor antagonist ICI 192,605 (5 min preincubation), same agonist concentrations
[7] = FIG. 4B, vehicle preincubation (no antagonist), same agonist concentrations
[8] = FIG. 4C, dual inhibition with AR-C66096 and ICI 192,605 (5 min preincubation), same agonist concentrations
[9] = FIG. 4C, vehicle preincubation (no antagonist), same agonist concentrations

Molecule: dextran sulfate [DxS]
- extent of platelet aggregation (percentage light transmission compared with PPP) [1, 4]: 23±6%
- extent of platelet aggregation (percentage light transmission compared with PPP) [1, 5]: 84±5%
- extent of platelet aggregation (percentage light transmission compared with PPP) [1, 6]: 39±7%
- extent of platelet aggregation (percentage light transmission compared with PPP) [1, 7]: 88±6%
- extent of platelet aggregation (percentage light transmission compared with PPP) [1, 8]: 37±6%
- extent of platelet aggregation (percentage light transmission compared with PPP) [1, 9]: 88±6%
- course of platelet aggregation under dual inhibition (reversibility of first phase) [2]: irreversible and sustained

Molecule: SFLLRN
- extent of platelet aggregation (percentage light transmission compared with PPP) [1, 4]: 5±1%
- extent of platelet aggregation (percentage light transmission compared with PPP) [1, 5]: 91±3%
- extent of platelet aggregation (percentage light transmission compared with PPP) [1, 6]: 15±6%
- extent of platelet aggregation (percentage light transmission compared with PPP) [1, 7]: 91±3%
- extent of platelet aggregation (percentage light transmission compared with PPP) [1, 8]: 3±1%
- extent of platelet aggregation (percentage light transmission compared with PPP) [1, 9]: 93±2%
- course of platelet aggregation under dual inhibition (reversibility of first phase) [2]: only the first but reversible phase

Molecule: Collagen
- extent of platelet aggregation (percentage light transmission compared with PPP) [1, 4]: 23±4%
- extent of platelet aggregation (percentage light transmission compared with PPP) [1, 5]: 85±2%
- extent of platelet aggregation (percentage light transmission compared with PPP) [1, 6]: 21±4%
- extent of platelet aggregation (percentage light transmission compared with PPP) [1, 7]: 90±3%
- extent of platelet aggregation (percentage light transmission compared with PPP) [1, 8]: 11±2%
- extent of platelet aggregation (percentage light transmission compared with PPP) [1, 9]: 86±2%
- course of platelet aggregation under dual inhibition (reversibility of first phase) [2]: only the first but reversible phase

B1: PEAR1-EC: PEAR1 extracellular domain protein (Kauskot et al.) (protein, UniProt Q5VY43 21-755, looked up)
extracellular domain: LNPSDPNTCSFWESFTTTTKESHSRPFSLLPSEPCERPWEGPHTCPQPTVVYRTVYRQVVKTDHRQRLQCCHGFYESRGFCVPLCAQECVHGRCVAPNQCQCVPGWRGDDCSSECAPGMWGPQCDKPCSCGNNSSCDPKSGVCSCPSGLQPPNCLQPCTPGYYGPACQFRCQCHGAPCDPQTGACFCPAERTGPSCDVSCSQGTSGFFCPSTHSCQNGGVFQTPQGSCSCPPGWMGTICSLPCPEGFHGPNCSQECRCHNGGLCDRFTGQCRCAPGYTGDRCREECPVGRFGQDCAETCDCAPDARCFPANGACLCEHGFTGDRCTDRLCPDGFYGLSCQAPCTCDREHSLSCHPMNGECSCLPGWAGLHCNESCPQDTHGPGCQEHCLCLHGGVCQATSGLCQCAPGYTGPHCASLCPPDTYGVNCSARCSCENAIACSPIDGECVCKEGWQRGNCSVPCPPGTWGFSCNASCQCAHEAVCSPQTGACTCTPGWHGAHCQLPCPKGQFGEGCASRCDCDHSDGCDPVHGRCQCQAGWMGARCHLSCPEGLWGVNCSNTCTCKNGGTCLPENGNCVCAPGFRGPSCQRSCQPGRYGKRCVPCKCANHSFCHPSNGTCYCLAGWTGPDCSQPCPPGHWGENCAQTCQCHHGGTCHPQDGSCICPLGWTGHHCLEGCPLGTFGANCSQPCQCGPGEKCHPETGACVCPPGHSGAPCRIGIQEPFTVMPTTPVAYNSL
modifications: extracellular domain
- aggregation of washed human platelets [3]: induce aggregation of washed (isolated) human platelets in a concentration-dependent fashion
